# Test results published in patent publication US20210163937A1, “[…] GENOME-EDITED CELLS” (B.R.A.I.N. Biotechnology Research and Information Network AG, priority 2018, published 2021).
# Legend:
# Assay type in all cases: cell-based, human
# [1] = tested on: HaCaT cells; test: Co-editing of LRRC8D and EMX1 with blasticidin enrichment, Sanger sequencing and ICE analysis; conditions: transfected HaCaT cells treated with blasticidin
# Description: The functionality of the above-described co-editing system was tested by using EMX1 (Empty Spiracles Homeobox 1) as gene-of-interest and LRRC8D as blasticidin resistance-mediating gene. EMX1 is a commonly used reference gene in CRISPR-based research^23. Instead of LRRC8A, another member of the LRRC8 gene family, LRRC8D, was used. First, the coding sequences of two sgRNAs targeting the LRRC8D and EMX1 gene were cloned into an expression plasmid containing the coding sequence for the Cas9 nuclease (FIGS. 4 and 5A). Then HaCaT cells were transfected with the expression plasmids and cells were either treated or not treated with blasticidin (FIG. 5A). After several days of cultivation, genomic DNA was extracted and used in PCR to amplify the genomic-region of the LRRC8D and EMX gene. The PCR products were analyzed by Sanger sequencing and subsequent ICE (Inference of CRISPR Edits)^24 analysis to determine the genetic modifications occurring in the treated and non-treated HaCaT cells (FIG. 5B). Strikingly, when the transfected HaCaT cell pool was not treated with blasticidin, no editing event could be detected; neither in the EMX1 nor in the LRRC8D gene.
# [2] = tested on: HaCaT knock-out cells devoid of LRRC8D; test: Blasticidin tolerance of LRRC8D knock-out cells; conditions: LRRC8D gene knock-out
# Description: FIG. 2: (A) Microscopic analysis of cytotoxic effect of blasticidin on HaCaT wildtype keratinocytes (VVT) (upper panel), HaCaT knock-out cells devoid of LRRC8A (LRRC8A^−/− KO) and HaCaT knock-out cells devoid of LRRC8D (LRRC8D^−/− KO). (B) Graphical display of survival rate of HaCaT wildtype vs. LRRC8A knock-out cells in presence of blasticidin.
# (§1) In order to determine the tolerance against the antibiotic blasticidin, HaCaT wildtype keratinocytes (VVT; Boukamp, et al.1988, The Journal of Cell Biology, 106(3):761-771.) as well as HaCaT-LRRC8A^−/− knock-out (KO) cells were treated with different concentrations of blasticidin and growth was determined microscopically for several days (FIG. 2). […] As previously shown for KBM-7cells^10, the LRRC8D subunit is also required for blasticidin uptake in HaCaT cells (FIG. 2A).
# [3] = tested on: HEK293 cells; test: HR-dependent LRRC8A gene disruption, cell growth under blasticidin; conditions: HEK293, Cas9 + intronic LRRC8A sgRNA, treated 72 h after transfection
# Description: Next, it was tested whether the above-described strategy (Example 6, FIG. 8) can indeed be employed to enrich HR-capable cells (or conversely to get rid of cells which have performed NHEJ). First, a HDR donor template was designed (FIG. 9A), which creates a modified, non-functional LRRC8A sequence after successful insertion via HR. The HDR donor template is composed of left and right HR flaks, which are complementary to intronic and exon-3 LRRC8A sequence, respectively. The exon-3 sequence used in the HDR donor template carries two modifications to create non-functional LRRC8A: (i) Mutation of the translational start site ATG to ATT and (ii) deletion of one nucleotide (Guanin) to create LRRC8A frameshift. To also test whether foreign or recombinant DNA sequences can be inserted into the LRRC8A locus as well, the restriction site for the Kpnl restriction enzyme was included into the HDR donor template. To prevent the repeated cutting of the Cas9 enzyme (which would prevent successful HDR donor template insertion), the spacer sequence of the sgRNA (which is used to induce the DSB at the intronic region of LRRC8A) was modified by mutating the PAM motif and the seed region. […]
# [4] = tested on: HaCaT cells; test: Co-editing of LRRC8A and EMX1 with blasticidin enrichment, ICE analysis; conditions: for EMX1 editing: after blasticidin
# Description: (§2) To further increase the editing rate of the gene of interest, the two single sgRNA cassettes of the gene of interest and the LRRC8A or LRRC8D selection gene (FIG. 6A) can be transcriptionally coupled, for example by coupling the sgRNAs via ribozyme structures (FIG. 6B) or by other processing sites such as tRNAs (FIG. 6C). […] Then HaCaT cells were transfected with the corresponding expression plasmids and cells were treated and analyzed as described in Example 4.
# The initial editing rates for EMX1 and LRRC8A were determined 48 h post-transfection and were very low (<5%) (FIG. 7A). Treatment with blasticidin led to drastic increase of LRRC8A editing (>95%), which was equally high independent of the sgRNA expression construct showing efficient enrichment of LRRC8A-KO cells using blasticidin (FIG. 7A). When sgRNA expression cassette of EMX1 was independent from that of LRRC8A, EMX1 editing was increased from 3 to 7%. Strikingly, by coupling the two sgRNA cassettes of EMX1 and LRRC8A via ribozymes, EMX1 editing could drastically be increased from 7% to >70% (FIG. 7A). This clearly proves that the above-described strategy to increase low editing events by transcriptional coupling is functioning.
# [5] = tested on: HEK293 cells; test: as above; conditions: HEK293, after blasticidin
# Description: as §2
# To confirm the suitability of the co-editing strategy of the present invention also for a different cell type, the same experimental setup was applied for HEK293 cells (FIG. 7B). Again, initial editing of the gene of interest EMX1 was also very low in HEK293 cells. By applying the co-editing strategy as presented above for HaCaT cells, it was also possible to increase the editing rates to approx. 60% for EMX1 and approx. 90% for LRRC8A in HEK293 cells (using uncoupled sgRNA expression constructs) (FIG. 7B).
# Again, by transcriptional coupling it was possible to further increase editing rates for EMX1 from 62% to 74% (FIG. 7B).
# [6] = tested on: non-pure LRRC8A−/− HaCaT cell clone; test: Removal of wildtype cells from a mixed LRRC8A−/− cell pool, PCR of genomic DNA; conditions: single pulse 4 μg/ml blasticidin for 24 h, then blasticidin-free medium
# Description: Creating single cell clones is one of the most challenging tasks in all fields of genome engineering. […] Therefore it was of interest to analyze whether the LRRC8A-mediated blasticidin resistance could be a very easy method to get rid of non-edited wildtype cells. To mimic this issue, a non-pure LRRC8A^−/− HaCaT cell clone, which contained the desired 300 bp LRRC8A genomic deletion as well as few undesired HaCaT wildtype cells, was chosen and either treated or not treated with a single blasticidin pulse (4 μg/ml blasticidin applied for 24 h) (FIG. 3A). Then cultivation medium was changed and cells were cultivated in absence of blasticidin. Genomic DNA was isolated and PCR was performed to visualize the genomic deletion of LRRC8A in knock-out cells and/or the non-deleted, intact LRRC8A gene of wildtype cells (FIG. 3B). […] Strikingly, treatment with blasticidin prevented this effect: No
# This also proves that disruption of the LRRC8A-mediated blasticidin resistance can not only be used to create blasticidin-resistant cells but that it is also suited to get rid of unwanted wildtype cells during genome engineering.
# [7] = tested on: HaCaT-LRRC8A−/− knock-out (KO) cells; test: Blasticidin tolerance, growth determined microscopically
# Description: as §1
# [8] = tested on: HaCaT wildtype keratinocytes; test: as above; conditions: 4 μg/ml blasticidin, HaCaT-WT cells
# Description: as §1
smiles,measurement,setting,value
CN(CC[C@H](N)CC(=O)N[C@H]1C=C[C@H](n2ccc(N)nc2=O)O[C@@H]1C(=O)O)C(=N)N [blasticidin],editing percentage of the LRRC8D gene,[1],90%
same,editing percentage of the co-edited EMX1 gene,[1],6%
same,blasticidin resistance of LRRC8D knock-out cells,[2],resistant
same,cell growth under blasticidin treatment,[3]; HDR donor template included,cell growth was observed
same,cell growth under blasticidin treatment,[3]; HDR template omitted,no cell growth was observed
same,LRRC8A editing,"[4]; after blasticidin treatment, independent of sgRNA expression construct",> 95%
same,EMX1 editing,[4]; EMX1 sgRNA cassette independent from LRRC8A,7%
same,EMX1 editing,[4]; sgRNA cassettes coupled via ribozymes HDV/HH,> 70%
same,editing rate for EMX1,[5]; transcriptional coupling,74%
same,editing rate for LRRC8A,[5]; uncoupled sgRNA expression constructs,approx. 90%
same,PCR products of wildtype and knock-out cells after blasticidin treatment,[6],only the PCR product of the pure knock-out cell clone was detectable
same,survival of cells under blasticidin treatment,[7],survived the treatment
same,growth of cells in presence of blasticidin,[8],not able to grow anymore and died
